# Results: patent US20050101595A1, “N-containing cycloalkyl-substituted amino-thiazole derivatives and pharmaceutical compositions for inhibiting cell proliferation and methods for their use” (PFIZER INC., priority 2003, published 2005)
# Structures can show the parent of a compound that is named as a salt. Where two headings read alike, the source gives them in different places.
# Tests used:
# [1] = biological target: CDK2/Cyclin A (Homo sapiens, UniProt P24941); test: Inhibition of CDK2/Cyclin A Retinoblastoma Kinase Activity; assay type: biochemical; details: for CDK2 % Inhibition At 0.03 μM: Table 2; for Ki: apparent Ki, CDK2/proteolyzed cyclin A, Rb fragment substrate, 25 μM ATP
# In short: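 Radiometric filter-binding readout of phosphate transfer to an Rb substrate fragment by purified CDK2/truncated cyclin A at 10 or 19 nM. Run at pH 7.4 with 25 μM ATP, 30 °C, 60–75 min, linear rates; background without enzyme subtracted, Ki from competitive-inhibition models.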
# [2] = test system: HCT-116 cell line; test: Inhibition of cell growth, tetrazolium salt (MTT) assay; assay type: cell-based; details: for HCT-116 % Inhibition at 0.25 μM: 0.25 μM compound; for IC50: Homo sapiens, HCT-116, 120 h, MTT, three to five days, read-out: HCT-116 IC50
# In short: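 Cells in McCoy's 5A medium were left 4 h, then given graded compound concentrations in 0.5% (v/v) DMSO and incubated three to five days at 37° C (5% CO2). MTT was added to 0.2 mg/mL for 4 h more; DMSO-solubilized formazan was read at 540 nm against 0.5% DMSO-only controls.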
# [3] = biological target: human CDK4 and genetically truncated (1-264) cyclin D3 (Homo sapiens, UniProt P11802); test: Inhibition of CDK4/Cyclin D Retinoblastoma Kinase Activity; assay type: biochemical; details: for Ki: apparent Ki, CDK4/truncated cyclin D3, Rb fragment substrate, 25 μM ATP
# Sequence of human CDK4 and genetically truncated (1-264) cyclin D3 (P11802 whole entry, the tested form may be a part): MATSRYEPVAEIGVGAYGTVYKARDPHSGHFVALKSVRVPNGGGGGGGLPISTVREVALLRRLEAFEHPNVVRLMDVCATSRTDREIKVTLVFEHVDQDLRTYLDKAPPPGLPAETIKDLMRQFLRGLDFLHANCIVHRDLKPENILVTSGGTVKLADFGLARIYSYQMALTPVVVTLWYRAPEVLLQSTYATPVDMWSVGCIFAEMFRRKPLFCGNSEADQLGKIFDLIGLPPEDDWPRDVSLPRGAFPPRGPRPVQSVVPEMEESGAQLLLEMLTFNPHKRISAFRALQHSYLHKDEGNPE
# Sequence of human CDK4 and genetically truncated (1-264) cyclin D3 (P30281 1-264 partner): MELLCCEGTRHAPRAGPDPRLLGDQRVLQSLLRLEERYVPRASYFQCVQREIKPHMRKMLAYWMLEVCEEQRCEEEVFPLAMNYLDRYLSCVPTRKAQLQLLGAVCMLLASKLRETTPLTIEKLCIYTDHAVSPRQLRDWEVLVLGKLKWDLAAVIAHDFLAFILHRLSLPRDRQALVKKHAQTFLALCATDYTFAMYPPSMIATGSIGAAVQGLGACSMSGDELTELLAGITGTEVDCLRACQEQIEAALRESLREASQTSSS
# In short: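 Apparent Ki values come from competitive or competitive tight-binding inhibition fits of background-corrected 32P/33P incorporation into His-tagged Rb fragment (386-928), captured on nitrocellulose. Reaction: 5 nM insect-cell-expressed human CDK4 with cyclin D3 (1-264), 25 μM ATP, pH 7.4 HEPES, 2% DMSO, 30° C., 20 min, extended to 60 min for tight-binding inhibitors.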
# [4] = 0.1 μM compound, HCT-116, Table 3
# [5] = 0.1 μM compound, HCT-116, Table 4
compound,measurement,setting,value
CCCCOc1ccc(C(C)(C)CC(C)(C)C)cc1S(=O)(=O)N1CCC(Nc2nc(N)c(C(=O)c3c(F)cccc3F)s2)CC1 [Example P73],CDK2 % Inhibition at 0.03 μM,"[1]; 0.03 μM compound, Table 3",−28%
same,HCT-116 % Inhibition at 0.1 μM,[2]; [4],16%
same,HCT-116 % Inhibition at 0.25 μM,"[2]; HCT-116, Table 3",30%
same,CDK4 % Inhibition at 0.03 μM,"[3]; 0.03 μM compound, Table 3",1%
COC(=O)[C@H](COC(C)(C)C)NC(=O)N1CCC(Nc2nc(N)c(C(=O)c3c(F)cccc3F)s2)CC1 [Example O79],CDK2 % Inhibition At 0.03 μM,[1]; 0.03 μM compound,32%
same,HCT-116 % Inhibition at 0.25 μM,"[2]; HCT-116, Table 2",49%
same,CDK4 % Inhibition at 0.03 μM,"[3]; 0.03 μM compound, Table 2",8%
COC(=O)CCC(=O)N1CCC(Nc2nc(N)c(C(=O)c3c(F)cccc3F)s2)CC1 [Example Q49],CDK2 % Inhibition at 0.03 μM,"[1]; 0.03 μM compound, Table 4",16%
same,HCT-116 % Inhibition at 0.1 μM,[2]; [5],0%
same,HCT-116 % Inhibition at 0.25 μM,"[2]; HCT-116, Table 4",28%
same,CDK4 % Inhibition at 0.03 μM,"[3]; 0.03 μM compound, Table 4",24%
CC(C)(C)COC(=O)N1CCC(Nc2nc(N)c(C(=O)c3c(F)cccc3F)s2)CC1 [Example R88],CDK2 % Inhibition at 0.03 μM,[1]; at 0.03 μM,6%
same,HCT-116 % Inhibition at 0.1 μM,"[2]; HCT-116 cells, at 0.1 μM",0%
same,HCT-116 5 Inhibition at 0.25 μM,[2]; HCT-116 cells,42
same,CDK4 % Inhibition at 0.03 μM,[3]; at 0.03 μM,−3%
Nc1nc(NC2CCN(C(=O)Nc3ccc(Cl)c(C(F)(F)F)c3)CC2)sc1C(=O)c1c(F)cccc1F [Example O51],CDK2 % Inhibition At 0.03 μM,[1]; 0.03 μM compound,30%
same,HCT-116 % Inhibition at 0.25 μM,"[2]; HCT-116, Table 2",11%
same,CDK4 % Inhibition at 0.03 μM,"[3]; 0.03 μM compound, Table 2",7%
Nc1nc(NC2CCN(C(=O)c3cccnc3Oc3ccc(Cl)cc3)CC2)sc1C(=O)c1c(F)cccc1F [Example R44],CDK2 % Inhibition at 0.03 μM,[1]; at 0.03 μM,16%
same,HCT-116 % Inhibition at 0.1 μM,"[2]; HCT-116 cells, at 0.1 μM",0%
same,HCT-116 5 Inhibition at 0.25 μM,[2]; HCT-116 cells,41
same,CDK4 % Inhibition at 0.03 μM,[3]; at 0.03 μM,25%
Nc1nc(NC2CCN(S(=O)(=O)c3ccc(C(F)(F)F)cc3)CC2)sc1C(=O)c1c(F)cccc1F [Example P33],CDK2 % Inhibition at 0.03 μM,"[1]; 0.03 μM compound, Table 3",56%
same,HCT-116 % Inhibition at 0.1 μM,[2]; [4],6%
same,HCT-116 % Inhibition at 0.25 μM,"[2]; HCT-116, Table 3",32%
same,CDK4 % Inhibition at 0.03 μM,"[3]; 0.03 μM compound, Table 3",59%
Nc1nc(NC2CCN(S(=O)(=O)c3c(Cl)nc4sccn34)CC2)sc1C(=O)c1c(F)cccc1F [Example P79],CDK2 % Inhibition at 0.03 μM,"[1]; 0.03 μM compound, Table 3",53%
same,HCT-116 % Inhibition at 0.1 μM,[2]; [4],10%
same,HCT-116 % Inhibition at 0.25 μM,"[2]; HCT-116, Table 3",18%
same,CDK4 % Inhibition at 0.03 μM,"[3]; 0.03 μM compound, Table 3",44%
"Nc1nc(NC2CCN(C(=S)Oc3ccc(F)cc3)CC2)sc1C(=O)c1c(F)cccc1F [Example C11, 4-[4-Amino-5-(2,6-difluoro-benzoyl)-thiazol-2-ylamino}-piperidine-1-carbothioic acid —O-(4-Fluoro-phenyl) ester]",Ki,[1],0.0065 µM
same,IC50,[2]; first HCT-116 column (c4),0.4 µM
same,IC50,[2]; second HCT-116 column (c5),2.7 µM
same,Ki,[3],0.01 µM
Cc1ccc(S(=O)(=O)NC(=O)N2CCC(Nc3nc(N)c(C(=O)c4c(F)cccc4F)s3)CC2)cc1 [Example O25],CDK2 % Inhibition At 0.03 μM,[1]; 0.03 μM compound,31%
same,HCT-116 % Inhibition at 0.25 μM,"[2]; HCT-116, Table 2",27%
same,CDK4 % Inhibition at 0.03 μM,"[3]; 0.03 μM compound, Table 2",3%
"Cn1cncc1-c1ccc(S(=O)(=O)N2CCC(Nc3nc(N)c(C(=O)c4c(F)cccc4F)s3)CC2)cc1 [Example F32, 1-(4-Amino-2-{1-[4-(3-methyl-3H-imidazol-4-yl)-benzenesulfonyl]-piperidin-4-ylamino}-thiazol-5-yl)-1-(2,6-difluoro-phenyl)-methanone Trifluoroacetic Acid Salt]",Ki,[1],0.0004 µM
same,IC50,[2]; first HCT-116 column (c4),0.11 µM
same,IC50,[2]; second HCT-116 column (c5),0.38 µM
same,Ki,[3],0.0009 µM
C/C=C/C(=O)N1CCC(Nc2nc(N)c(C(=O)c3c(F)cccc3F)s2)CC1 [Example Q46],CDK2 % Inhibition at 0.03 μM,"[1]; 0.03 μM compound, Table 4",−9%
same,HCT-116 % Inhibition at 0.1 μM,[2]; [5],0%
same,HCT-116 % Inhibition at 0.25 μM,"[2]; HCT-116, Table 4",27%
same,CDK4 % Inhibition at 0.03 μM,"[3]; 0.03 μM compound, Table 4",25%
CCOC(=O)CCC(=O)N1CCC(Nc2nc(N)c(C(=O)c3c(F)cccc3F)s2)CC1 [Example Q50],CDK2 % Inhibition at 0.03 μM,"[1]; 0.03 μM compound, Table 4",24%
same,HCT-116 % Inhibition at 0.1 μM,[2]; [5],7%
same,HCT-116 % Inhibition at 0.25 μM,"[2]; HCT-116, Table 4",39%
same,CDK4 % Inhibition at 0.03 μM,"[3]; 0.03 μM compound, Table 4",42%
"CNCCS(=O)(=O)N1CCC(Nc2nc(N)c(C(=O)c3c(F)cccc3F)s2)CC1 [Example K33, {4-Amino-2-[1-(2-methylamino-ethanesulfonyl)-piperidin-4-ylamino]-thiazol-5-yl}-(2,6-difluoro-phenyl)-methanone Trifluoroacetic Acid Salt.]",Ki,[1],0.0056 µM
same,IC50,[2]; first HCT-116 column (c4),0.65 µM
same,IC50,[2]; second HCT-116 column (c5),5 µM
same,Ki,[3],0.00064 µM
